Like-named read-outs stand apart in the source and are kept apart here.
How the values were obtained:
[1] = system: hepatitis B virus (HBV); assay: Humanized liver chimeric mouse model of chronic HBV infection, serum HBsAg by EIA; assay type: in vivo; conditions: mean ± SEM
Description: This work was conducted in a well-established humanized liver chimeric mouse model of chronic hepatitis B virus (HBV) infection (Tsuge et al., Hepatology, 42(5), 1046-54 (2005)). A persistent level of HBV infection was established in the animals prior to the treatment phase which started at Day 0.
The anti-HBV effects were assessed based on serum HBsAg levels using the GS HBsAg EIA 3.0 enzyme linked immunosorbent assay kit from Bio-Rad Laboratories as per manufacturer instructions; and serum HBV DNA levels measured from total extracted DNA using a quantitative PCR assay (primer/probe sequences from Tanaka et al., Journal of Medical Virology, 72, 223-229 (2004)).

[2] = system: HBV cccDNA-dependent precore RNA in DESHAe82 cells; assay: DESHAe82 / DE19 cell culture system, cccDNA-derived precore RNA by qRT-PCR, MacSynergy II; assay type: cell-based, Hepatitis B virus; conditions: ETV μM: 0.01, 0.0032, 0.001, 0.0003, 0.0001, 3E−05, 0
Description: In vitro combination studies were conducted using a modification of the assay system described in Cai et al (Antimicrobial Agents Chemotherapy, 2012. Vol 56(8):4277-88). A previously developed HepDE19 cell culture system (Guo et al. J. Virology (2007) 81(22): 12472-12484) supports HBV DNA replication and cccDNA formation in a tetracycline (Tet)-regulated manner, and produces a detectable reporter molecule which is dependent upon the production and maintenance of cccDNA.
In the HepDE19 cell culture system, the reporters are the precore RNA and its cognate protein product, the secreted HBV “e antigen” (HBeAg). In HepDE19 cells, precore RNA and HBeAg are only produced from the cccDNA circular template, because the ORF of HBeAg and its 5′ RNA leader are separated between the opposite ends of the integrated viral genome, and only become contiguous with the formation of cccDNA. Although an assay based on the HepDE19 cell culture system is effective for determining activity, the results of high throughput screening may be complicated because the HBeAg ELISA cross reacts with a viral HBeAg homologue, which is the core antigen (HBcAg) expressed largely in a cccDNA-independent fashion in HepDE19 cells. To overcome this complication, an alternative cell culture system (designated herein as DESHAe82 cell culture system and described in PCT/EP/2015/06838) has been developed which includes an in-frame HA epitope tag in the N-terminal coding sequence of HBeAg in the transgene of DESHAe82 cells, without disrupting any cis-element critical for HBV replication, cccDNA transcription, and HBeAg secretion.
A chemiluminescence ELISA assay (CLIA) for the detection of HA-tagged HBeAg with HA antibody serving as capture antibody and […] has been developed, eliminating the contaminating signal from HBcAg. […] In addition, a protocol for quantitative reverse transcription and polymerase chain reaction (qRT-PCR) that is specific for detection of precore RNA in either DE19 or DESHAe82 cells was developed and is also used for the detection of the cccDNA-dependent mRNA (precore RNA) that is translated to produce HBeAg or HA-HBeAg.
To test the compound combinations, DESHAe82 or DE19 cells (as indicated in examples) were plated in 96 well tissue-culture treated microtiter plates in DMEM/F12 medium supplemented with 10% fetal bovine serum+1% penicillin-streptomycin with Tet, and incubated in a humidified incubator at 37° C. and 5% CO2 overnight. […] The two inhibitors were tested both singly as well as in combinations in a checkerboard fashion such that each test concentration of inhibitor A was combined with each test concentration of inhibitor B to determine their combination effects on inhibition of cccDNA formation and expression. Untreated negative control samples (0.5% DMSO or media only) were included on each plate in multiple wells. Following a 9 day-incubation, media was removed and cells were subjected to RNA extraction to measure the cccDNA-dependent precore mRNA level. Total cellular RNAs were extracted using a 96-well format total RNA isolation kit ([…]-NAGEL, Cat. 740466.4) by following the instruction of manufacturer (vacuum manifold processing, two more extra washes of Buffer RA4). RNA samples were eluted in RNAase-free water. Quantitative real-time RT-PCR was performed with a Roche LightCycler480 and RNA Master Hydrolysis probe (Catalog number 04991885001, Roche) using primers and conditions for specific detection of cccDNA-dependent precore RNA. GAPDH mRNA levels were also detected by standard methods and used to normalize the precore RNA levels.

[3] = system: HBV rcDNA in AML12-HBV10 cells; assay: AML12-HBV10 cell culture system, rcDNA quantitation using bDNA assay, MacSynergy II; assay type: cell-based, mouse hepatocyte cell line; conditions: for EC50: read-out: Inhibitor EC50; for inhibition at 0.01 µM: Compound 3 0.010 μM; for inhibition at 0.02 µM: Compound 3 0.020 μM; for inhibition at 0.039 µM: Compound 3 0.039 μM; for inhibition at 0.078 µM: Compound 3 0.078 μM; for inhibition at 0.313 µM: Compound 3 0.313 μM; for inhibition at 0.625 µM: Compound 3 0.625 μM; for inhibition at 1.25 µM: Compound 3 1.250 μM
Description: In vitro combination studies were conducted using the method of Prichard and Shipman (Prichard M N, and Shipman C Jr., Antiviral Research, 1990, 14 (4-5), 181-205; and Prichard M N, et. al., MacSynergy II). The AML12-HBV10 cell line was developed as described in Campagna et al. (Campagna et. al., J. Virology, 2013, 87(12), 6931-6942). It is a mouse hepatocyte cell line stably transfected with the HBV genome, and which can express HBV pregenomic RNA and support HBV rcDNA (relaxed circular DNA) synthesis in a tetracycline-regulated manner. AML12-HBV10 cells were plated in 96 well tissue-culture treated microtiter plates in DMEM/F12 medium supplemented with 10% fetal bovine serum +1% penicillin-streptomycin without tetracycline and incubated in a humidified incubator at 37° C. and 5% CO2 overnight. […] The two inhibitors were tested both singly as well as in combinations in a checkerboard fashion such that each concentration of inhibitor A was combined with each concentration of inhibitor B to determine their combination effects on inhibition of rcDNA production. Following a 48 hour-incubation, the level of rcDNA present in the inhibitor-treated wells was measured using a bDNA assay (Affymetrix) with HBV specific custom probe set and manufacturer's instructions. […] Concurrently, the effect of inhibitor combinations on cell viability was assessed using replicate plates that were used to determine the ATP content as a measure of cell viability using the cell-titer glo reagent (Promega) as per manufacturer's instructions.

[4] = Day 21, Compound 3 oral 100 mg/kg twice daily, SIRNA-NP iv 3 mg/kg every 2 weeks, ETV oral 1.2 μg/kg daily, pegIFN α-2a sc 30 μg/kg twice a week
[5] = Hepatitis B virus, AML12HBV10, in Mus musculus, ETV μM: 0.075, 0.025, 0.008, 0.003, 0.001, 0
[6] = Hepatitis B virus, AML12HBV10, in Mus musculus, SIRNA-NP μg/mL: 0.5, 0.167, 0.056, 0.019, 0.006, 0

`CC[C@@H](C)NS(=O)(=O)c1ccc(F)c(C(=O)Nc2ccc(F)c(F)c2)c1` [Compound 3] was tested, and the “Serum HBsAg” value ([1]; Day 0 (start of treatment)) was 2965 ± 616 IU/mL, the “Serum HBsAg” value [1, 4] was 4158 ± 355 IU/mL and the “Average percent inhibition versus negative control (precore RNA)” value ([2]; Compound 3 0.032 μM) was −26.280%. The “Average percent inhibition versus negative control (precore RNA)” value ([2]; Compound 3 0.100 μM) was −86.920%, the “Average percent inhibition versus negative control (precore RNA)” value ([2]; Compound 3 0.317 μM) was 36.240% and the “Average percent inhibition versus negative control (precore RNA)” value ([2]; Compound 3 1.001 μM) was 67.120%. For the same compound, the “Average percent inhibition versus negative control (precore RNA)” value ([2]; Compound 3 3.165 μM) was 90.600%, the “Average percent inhibition versus negative control (precore RNA)” value ([2]; Compound 3 10 μM) was 84.340% and the EC50 ([3]; Hepatitis B virus, AML12HBV10, in Mus musculus, 48 h, rcDNA, AML12-HBV10 cells, 48 hrs) was 250 nM. It also gave an inhibition at 0.01 µM [3, 5] of -3.19%, an inhibition at 0.01 µM [3, 6] of -1.98% and an inhibition at 0.02 µM [3, 5] of 0.62%. It also gave an inhibition at 0.02 µM [3, 6] of -20.5%, an inhibition at 0.039 µM [3, 5] of 7.38% and an inhibition at 0.039 µM [3, 6] of -16.9%. It also gave an inhibition at 0.078 µM [3, 5] of -1.81%, an inhibition at 0.078 µM [3, 6] of 20.1% and an inhibition at 0.313 µM [3, 5] of 71%. For the same compound, the inhibition at 0.313 µM [3, 6] was 59.4%, the inhibition at 0.625 µM [3, 5] was 80.8% and the inhibition at 0.625 µM [3, 6] was 79.9%. The inhibition at 1.25 µM [3, 5] was 86.7%, the inhibition at 1.25 µM [3, 6] was 88.1% and the inhibition at 2.5 µM ([3]; Hepatitis B virus, AML12HBV10, in Mus musculus, Compound 3 2.500 μM, ETV μM: 0.075, 0.025, 0.008, 0.003, 0.001, 0) was 90.5%. The inhibition at 2.5 µM ([3]; Hepatitis B virus, AML12HBV10, in Mus musculus, Compound 3 2.5 μM, SIRNA-NP μg/mL: 0.5, 0.167, 0.056, 0.019, 0.006, 0) was 89.7% and the EC50 ([3]; rcDNA, AML12-HBV10 cells, 48 hrs) was 231 nM.

In the case of `C=C1[C@H](CO)[C@@H](O)C[C@@H]1n1cnc2c(=O)[nH]c(N)nc21` [Entecavir], the “Serum HBsAg” value ([1]; Day 0 (start of treatment)) is reported as 2649 ± 282 IU/mL, the “Serum HBsAg” value [1, 4] is reported as 2975 ± 629 IU/mL and the EC50 ([3]; Hepatitis B virus, AML12HBV10, in Mus musculus, 48 h) is reported as 12 nM.
